Literature values as cited in patent publication US20140314667A1, “METHODS OF TREATING EPIDERMAL GROWTH FACTOR DELETION MUTANT VIII RELATED DISORDERS” (AMGEN INC., priority 2011, published 2014).

What was measured:
[1] = tested on: P388 lymphocytic leukemia system; conditions: Kupchan 1974; cited from earlier work
[2] = tested on: human acute lymphoblastic leukemia line CEM; conditions: in vitro, Wolpert-DeFillippes et al.; cited from earlier work
[3] = tested on: P388, L1210, and LY5178 murine leukemic cell suspensions; conditions: in vitro; cited from earlier work
[4] = tested on: L1210 mouse leukemia system, the human Lewis lung carcinoma system and the human B-16 melanocarcinoma system; conditions: Kupchan 1974; cited from earlier work
[5] = tested on: L1210 cells; conditions: Sieber et al.; untreated control mitotic index 3.2 to 5.8%; cited from earlier work
[6] = U.S. Pat. No. 3,896,111; cited from earlier work

## COc1cc2cc(c1Cl)N(C)C(=O)C[C@H](OC(=O)[C@H](C)N(C)C(C)=O)[C@]1(C)O[C@H]1[C@H](C)[C@@H]1C[C@@](O)(NC(=O)O1)[C@H](OC)/C=C/C=C(\C)C2 [Maytansine]
[1]
  dosage range over which tumor growth was inhibited: 50- to 100 fold
[2]
  inhibitory concentration: ≥ 10^−7 mg/ml
[3]
  inhibitory doses: 10^−3 to 10^−1 µg/µl
[4]
  inhibitory activity: significant inhibitory activity
[5]
  cells accumulating in mitosis: 67%
[6]
  more cytotoxic than conventional cancer chemotherapeutic agents like methotrexate, daunorubicin, and vincristine: 100 to 1000 fold
